Reference: EP1388586A2, “Identification of broadly reactive DR restricted epitopes” (priority 1998, dated 1999)
Like-named read-outs stand apart in the source and are kept apart here. Square brackets hold non-standard residues; d marks the D form. Ends that are not written are not given here. Peptide text beside a SMILES is read from it.

What was measured:
[1] = molecular target: T1, DRB1*0101 (DR1) (Homo sapiens, UniProt P01903+P01911, A100R/D57E/F55L/F60I/F76Y/I96L/L162R/M171V/P40L/Q125E/R42F/V115G/Y59C); assay: Class II peptide-binding assay, DR1;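 further: competition assay: unlabeled test peptides inhibit binding of a radiolabeled probe peptide to purified DR, with half-maximal inhibition taken as an approximate dissociation constant Kd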
T1 construct: used as sources of human HLA class II molecules; endogenous in cells; host or cells: LG2 (EBV-transformed homozygous B cell line)

[2] = molecular target: T2, DRB5*0101 (DR2w2a) (Homo sapiens, UniProt P01903+Q30154); assay: Class II peptide-binding assay, DR2w2a (DR2w2B2);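 further: competitive binding assay: unlabeled peptide inhibiting binding of a radiolabeled probe peptide to purified DR molecules at pH 7.0, IC50 approximating Kd, lower means stronger binding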
T2 construct: used as sources of human HLA class II molecules; endogenous in cells; host or cells: GM3107 (EBV-transformed homozygous B cell line)

[3] = molecular target: T3, DRB1*0401 (DR4w4) (Homo sapiens, UniProt P01903+P01911, A100K/A169T/F76Y/I96L/K127E/L162R/M171V/N62H/P40V/Q125Y/R42H/S133A/S149N/S66Y/V115G/V209L/W38E); assay: Class II peptide-binding assay, DR4w4;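 further: unlabeled test peptides compete with a radiolabeled probe peptide for binding to affinity-purified HLA-DR, with DR amount titrated to capture a small fraction of label, IC50 approximating Kd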
T3 construct: used as sources of human HLA class II molecules; endogenous in cells; host or cells: PREISS (EBV-transformed homozygous B cell line)

[4] = molecular target: T4, DRB10404 (DR4w14) (Homo sapiens, UniProt P01903+P01911, A100R/A169T/F76Y/I96L/K127E/L162R/M171V/N62H/P40V/Q125Y/R42H/S133A/S149N/S66Y/V209L/W38E); assay: Class II peptide-binding assay, DR4w14;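 further: unlabeled peptides compete with a radiolabeled probe for binding to affinity-purified HLA-DR, neutral pH, class II amount titrated to bind a small fraction of label, IC50 approximates Kd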
T4 construct: used as sources of human HLA class II molecules; endogenous in cells; host or cells: BIN40 (EBV-transformed homozygous B cell line)

[5] = molecular target: T5, DRB1*1101 (DR5w11) (Homo sapiens, UniProt P01903+P01911, A100R/A169T/A87E/I96F/K41T/L162R/M171V/P40S/Q125H/Q178H/Q39Y/Q99D/R42S/S66Y/T262R/V115G/W38E); assay: Class II peptide-binding assay, DR5w11;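 further: competition by unlabeled test peptide against iodinated probe peptide binding to affinity-purified HLA-DR, class II amount titrated beforehand, half-maximal inhibitory concentration read as approximate Kd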
T5 construct: used as sources of human HLA class II molecules; endogenous in cells; host or cells: SWEIG (EBV-transformed homozygous B cell line)

[6] = molecular target: DRB1*0701 (DR7) (Homo sapiens, UniProt P01903+P01911, A100R/A102G/A103Q/D57E/D86V/E43K/F76Y/K127E/L162R/M171V/P40G/Q125H/Q99D/R33Q/R42Y/R54Q/S133A/S66F/T210M/V115G/Y107V/Y59L/Y89S); assay: Class II peptide-binding assay, DR7;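 further: unlabeled peptides compete with an iodinated probe peptide for binding to affinity-purified HLA-DR at neutral pH, DR amount titered to bind a small tracer fraction, IC50 approximating Kd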
[7] = read-out: DR1 nM (In IC50 Format), purified HLA DR1
[8] = read-out: DR2w2B2 nM (In IC50 Format), purified HLA DR2w2β2
[9] = read-out: DR4w4 nM (In IC50 Format), purified HLA DR4w4
[10] = read-out: DR4w14 nM (In IC50 Format), purified HLA DR4w14
[11] = read-out: DR5w11 nM (In IC50 Format), purified HLA DR5w11
[12] = read-out: DR7 nM (In IC50 Format), purified HLA DR7
[13] = purified HLA DR1, read-out: DR1 nM (In IC50 Format)
[14] = purified HLA DR2w2β2, read-out: DR2w2B2 nM (In IC50 Format)
[15] = purified HLA DR4w4, read-out: DR4w4 nM (In IC50 Format)
[16] = purified HLA DR4w14, read-out: DR4w14 nM (In IC50 Format)
[17] = purified HLA DR5w11, read-out: DR5w11 nM (In IC50 Format)
[18] = purified HLA DR7, read-out: DR7 nM (In IC50 Format)

T5 sequence (P01903 26-254, other chains not shown): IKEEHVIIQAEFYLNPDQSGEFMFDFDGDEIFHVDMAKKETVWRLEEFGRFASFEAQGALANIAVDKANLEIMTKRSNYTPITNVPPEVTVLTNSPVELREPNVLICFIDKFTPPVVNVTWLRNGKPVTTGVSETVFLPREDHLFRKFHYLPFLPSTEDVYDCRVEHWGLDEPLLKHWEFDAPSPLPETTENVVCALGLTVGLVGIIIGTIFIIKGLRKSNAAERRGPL

Compound	IC50 [1, 7] [nM]	IC50 [2, 8] [nM]	IC50 [3, 9] [nM]	IC50 [4, 10] [nM]	IC50 [5, 11] [nM]	IC50 [6, 12] [nM]	further results
YARAQSQTTLKAKT-NH2 [Peptide 717.29]	556	1820	30	41.7	20000	3570	
CC[C@H](C)[C@H](NC(=O)CNC(=O)[C@@H](NC(=O)[C@H](Cc1ccccc1)NC(=O)[C@H](CCCCN)NC(=O)[C@H](CO)NC(=O)[C@H](CC(N)=O)NC(=O)[C@H](C)NC(=O)[C@H](CCCCN)NC(=O)[C@@H](NC(=O)[C@H](Cc1ccc(O)cc1)NC(=O)[C@@H](N)CCC(N)=O)[C@@H](C)CC)[C@@H](C)CC)C(=O)N[C@H](C(=O)N[C@@H](CCC(=O)O)C(=O)N[C@@H](CC(C)C)C(=O)N[C@@H](CCCCN)C(=O)N[C@@H](CCCCN)C(N)=O)[C@@H](C)O [Peptide 812.01]							IC50 [1, 13]: 80.6 nM; IC50 [2, 14]: 16 nM; IC50 [3, 15]: 409 nM; IC50 [4, 16]: 16700 nM; IC50 [5, 17]: 28.6 nM; IC50 [6, 18]: 357 nM
YERFQSQTTLKAKT-NH2 [Peptide 717.39]	18.5	800	10.7	16.7	47.6	8330	
YARFASQTTLKAKT-NH2 [Peptide 717.56]	3.1	118	5.2	12.8	21.1	6250	
YARFQSQTTAKAKT-NH2 [Peptide 717.51]	3.3	66.7	6.1	13.2	38.8	6250	
YARFQSQTYLKAKT-NH2 [Peptide 717.33]	1670	256	187	8330	1540	641	
YARFQSATTLKAKT-NH2 [Peptide 717.54]	4.6	60.6	4.1	7.2	9.5	676	
YARFQAQTTLKAKT-NH2 [Peptide 717.55]	2.4	90.9	4.5	4.3	11.1	5000	
MQYIKANSKFIGITE [Peptide 812.05]							IC50 [1, 13]: 64.1 nM; IC50 [2, 14]: 2.4 nM; IC50 [3, 15]: 229 nM; IC50 [4, 16]: 84.5 nM; IC50 [5, 17]: 6.7 nM; IC50 [6, 18]: 7.8 nM
INSWVESQTNGIIRNVLQPS [Peptide 732.01]	385	1330	166	269	6670	269	
YARFQSQTTLKAKA-NH2 [Peptide 717.48]	1.8	40.8	2.6	5.3	5.9	6250	
YARFQSQSTLKAKT-NH2 [Peptide 717.16]	6	105	1.8	8.1	4	3570	
YARFQSLTTLKAKT-NH2 [Peptide 717.15]	1.2	23.8	2	9.4	5.3	961	
CC[C@H](C)[C@H](NC(=O)[C@H](C)NC(=O)CNC(=O)[C@H](Cc1ccccc1)NC(=O)[C@H](CC(N)=O)NC(=O)[C@H](CC(N)=O)NC(=O)[C@H](N)CO)C(=O)N[C@@H](CC(C)C)C(=O)N[C@@H](CO)C(=O)N[C@@H](CO)C(=O)N[C@H](C(=O)N[C@@H](CC(N)=O)C(=O)N[C@H](C(=O)NCC(N)=O)C(C)C)[C@@H](C)O [Peptide 735.05] (H-[dS]NNFGAILSSTNVG-NH2)	48.5	2860	273	376	20000	12500	
CPIAIMSALAMVYLGAKDS [Peptide 705.04]	53.2	408	882	1140	6670	1090	
KMYFNLINTKCYKLEH [Peptide 541.14]							IC50 ([1]; Table VIII, read-out: In IC50 Format DR1): 714 nM; IC50 ([2]; Table VIII, read-out: In IC50 Format DR2w2β2): 103 nM; IC50 ([3]; Table VIII, read-out: In IC50 Format DR4w4): 2140 nM; IC50 ([4]; Table VIII, read-out: In IC50 Format DR4w14): 3570 nM; IC50 ([5]; Table VIII, read-out: In IC50 Format DR5w11): 250 nM; IC50 ([6]; Table VIII, read-out: In IC50 Format DR7): 269 nM
YARFQSQETLKAKT-NH2 [Peptide 717.17]	6	870	5.2	25	18.2	1920	
YARFQSQTTLAAKT-NH2 [Peptide 717.50]	4.2	274	3.1	4.3	20.8	4170	
YARFQSNTTLKAKT-NH2 [Peptide 717.47]	41.7	444	3.8	14.7	18.2	4170	
C[C@H](NC(=O)[C@H](N)Cc1ccc(O)cc1)C(=O)N[C@@H](C)C(=O)N[C@@H](Cc1ccccc1)C(=O)N[C@@H](C)C(=O)N[C@@H](C)C(=O)N[C@@H](C)C(=O)N[C@@H](C)C(=O)N[C@H](C(=O)N[C@@H](CCCCN)C(=O)N[C@@H](C)C(=O)N[C@@H](C)C(=O)N[C@@H](C)C(=O)N[C@H](C)C(N)=O)[C@@H](C)O [Peptide 828.10] (H-[dY]AAFAAAATKAAA[dA]-NH2)							IC50 ([1]; read-out: DR1 nM, Table VIII, In IC50 Format): 1.9 nM; IC50 ([2]; read-out: DR2w2B2 nM, Table VIII, In IC50 Format): 19.8 nM; IC50 ([3]; read-out: DR4w4 nM, Table VIII, In IC50 Format): 3.4 nM; IC50 ([4]; read-out: DR4w14 nM, Table VIII, In IC50 Format): 111 nM; IC50 ([5]; read-out: DR5w11 nM, Table VIII, In IC50 Format): 22.2 nM; IC50 ([6]; read-out: DR7 nM, Table VIII, In IC50 Format): 1250 nM
